Results as given in patent US8846951B2 (AbbVie Inc., priority 2009, dated 2014).
Read-outs that look alike come from different tables or passages of the source.

Assays:
5HT2C receptors = target: T1, 5HT2C receptors (Homo sapiens, UniProt P28335); assay: Human 5-HT2C functional high throughput screening assay in CHO-K1 cells (calcium flux); assay type: cell-based; parameters: expressed in transfected cells; host or cells: CHO-K1 cells; details: for EC50: CHO-K1 cells, calcium flux; for Emax: CHO-K1, 5-HT2C, maximum functional response as percentage relative to the effect of serotonin
T1 sequence (P28335 33-458): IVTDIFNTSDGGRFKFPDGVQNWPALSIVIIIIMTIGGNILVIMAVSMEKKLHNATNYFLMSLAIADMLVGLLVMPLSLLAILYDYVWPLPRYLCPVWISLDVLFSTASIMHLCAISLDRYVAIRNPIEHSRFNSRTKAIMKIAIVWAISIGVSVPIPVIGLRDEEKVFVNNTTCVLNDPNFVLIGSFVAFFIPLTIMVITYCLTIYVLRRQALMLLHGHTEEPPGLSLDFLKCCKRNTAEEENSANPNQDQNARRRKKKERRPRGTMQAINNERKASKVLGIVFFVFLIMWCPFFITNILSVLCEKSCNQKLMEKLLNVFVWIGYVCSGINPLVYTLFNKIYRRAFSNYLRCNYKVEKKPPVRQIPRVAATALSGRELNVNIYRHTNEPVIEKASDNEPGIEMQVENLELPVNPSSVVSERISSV
Method in brief: (§1)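 Agonism is measured as intracellular calcium increase in receptor-overexpressing CHO-K1 cells, read by FLIPR at 25 °C. Responses are expressed relative to serotonin, with EC50 and Emax derived from a 4-parameter logistic curve over 6 concentrations starting at 10 μM.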

5HT2B receptors = target: T2, 5HT2B receptors (Homo sapiens, UniProt P41595); assay: Human 5-HT2B functional high throughput screening assay in CHO-K1 cells (calcium flux); assay type: cell-based; details: for EC50: CHO-K1 cells, calcium flux
T2 construct: expressed in transfected cells; host or cells: CHO-K1 cells
Method in brief: as §1

[1] = 5-HT2C agonist activity, read-out: EC50
[2] = 5-HT2B agonist activity, read-out: EC50
[3] = 5-HT2B, maximum functional response as percentage relative to the effect of serotonin

T2 sequence (P41595 whole entry): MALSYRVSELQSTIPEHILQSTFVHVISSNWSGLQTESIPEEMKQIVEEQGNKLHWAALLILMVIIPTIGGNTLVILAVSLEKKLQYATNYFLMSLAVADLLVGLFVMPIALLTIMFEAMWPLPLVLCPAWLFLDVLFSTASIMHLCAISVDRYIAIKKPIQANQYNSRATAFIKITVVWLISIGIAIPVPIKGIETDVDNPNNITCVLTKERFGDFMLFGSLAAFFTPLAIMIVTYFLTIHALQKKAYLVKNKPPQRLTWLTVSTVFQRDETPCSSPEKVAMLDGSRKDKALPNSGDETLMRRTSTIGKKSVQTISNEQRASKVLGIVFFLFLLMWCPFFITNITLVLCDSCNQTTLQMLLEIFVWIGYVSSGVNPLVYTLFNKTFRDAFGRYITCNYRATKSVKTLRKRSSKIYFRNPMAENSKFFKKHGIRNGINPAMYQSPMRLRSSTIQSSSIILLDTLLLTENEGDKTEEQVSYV

SMILES | EC50 (5HT2C receptors; [1]) | Emax (5HT2C receptors) | EC50 (5HT2B receptors; [2]) | Emax (5HT2B receptors; CHO-K1) | EC50 (5HT2C receptors; EC50, 5-HT2C agonist activity) | Emax (5HT2B receptors; [3]) | EC50 (5HT2B receptors; EC50, 5-HT2B agonist activity) | Emax (5HT2C receptors; read-out: Emax)
CC(C)C(=O)N1CC[C@@H]2CNC[C@H]2c2ccccc21 (relative stereo) [Example 333, 1-[Trans-2,3,3a,4,5,10b-hexahydropyrrolo[3,4-d][1]benzazepin-6(1H)-yl]-2-methylpropan-1-one] | 300 nM | 90% | 2 µM | 40% |  |  |  | 
CC(C)CCOc1ccc2c(c1)C(=O)NC[C@@H]1CN(C)C[C@@H]21 (relative stereo) [Example 171, Trans-8-(isopentyloxy)-2-methyl-1,2,3,3a,4,5-hexahydrobenzo[e]pyrrolo[3,4-c]azepin-6(10bH)-one] |  | > 120% |  |  | 30 nM | inactive | > 10 µM | 
CN1C[C@@H]2CNC(=O)c3cc(-c4cccc(S(C)(=O)=O)c4)ccc3[C@H]2C1 [Example 228, (3aS,10bS)-2-Methyl-8-(3-(methylsulfonyl)phenyl)-1,2,3,3a,4,5-hexahydrobenzo[c]pyrrolo[3,4-e]azepin-6(10bH)-one] | 7 nM |  | > 10 µM |  |  | inactive |  | > 120%
COC(=O)c1ccc2c(c1)C(=O)NC[C@@H]1CN(Cc3ccccc3)C[C@@H]21 (relative stereo) [Example 129, Trans-methyl 2-benzyl-6-oxo-1,2,3,3a,4,5,6,10b-octahydrobenzo[e]pyrrolo[3,4-c]azepine-8-carboxylate] | 200 nM |  | > 10 µM |  |  | inactive |  | > 120%
O=C1NC[C@@H]2CNC[C@H]2c2ccc(-c3ccsc3Cl)cc21 (relative stereo) [Example 385, Trans-8-(2-chloro-3-thienyl)-2,3,3a,4,5,10b-hexahydropyrrolo[3,4-d][2]benzazepin-6(1H)-one] | 0.3 nM |  | > 10 µM |  |  | inactive |  | 95%
O=C1NC[C@@H]2CN(Cc3ccccc3)C[C@H]2c2ccc(O)cc21 (relative stereo) [Example 117, Trans-2-benzyl-8-hydroxy-1,2,3,3a,4,5-hexahydrobenzo[e]pyrrolo[3,4-c]azepin-6(10bH)-one] | 200 nM |  | > 10 µM |  |  | inactive |  | > 120%
O=S(=O)(c1ccc(Cl)c(Cl)c1)N1Cc2cccnc2[C@@H]2CNC[C@H]2C1 (relative stereo) [Example 334, Trans-6-[(3,4-dichlorophenyl)sulfonyl]-5,6,7,7a,8,9,10,10a-octahydropyrido[3,2-c]pyrrolo[3,4-e]azepine] | 70 nM |  | > 10 µM |  |  | inactive |  | 90%
CCC(C)Oc1ccc2c(c1)C(=O)NC[C@@H]1CN(C)C[C@@H]21 (relative stereo) [Example 170, Trans-8-sec-butoxy-2-methyl-1,2,3,3a,4,5-hexahydrobenzo[e]pyrrolo[3,4-c]azepin-6(10bH)-one] |  | 120% |  |  | 70 nM | inactive | > 10 µM | 
CC(=O)c1cccc(-c2cccc3c2OCC[C@H]2CNC[C@H]32)c1 (relative stereo) [Example 351, 1-{3-[Trans-2,3,3a,4,5,10b-hexahydro-1H-[1]benzoxepino[4,5-c]pyrrol-7-yl]phenyl}ethanone] | 90 nM |  | > 10 µM |  |  | inactive |  | 90%
Cc1ccc2c(c1)[C@H]1CNC[C@@H]1CCO2 (relative stereo) [Example 290, Trans-9-methyl-2,3,3a,4,5,10b-hexahydro-1H-[1]benzoxepino[4,5-c]pyrrole] |  | 80% |  | 35% | 100 nM |  | 0.02 µM | 
COc1ccc(-c2ccc3c(c2)C(=O)NC[C@@H]2CN(C)C[C@@H]32)cc1C (relative stereo) [Example 315, Trans-8-(4-methoxy-3-methylphenyl)-2-methyl-2,3,3a,4,5,10b-hexahydropyrrolo[3,4-d][2]benzazepin-6(1H)-one] | 30 nM |  | > 10 µM |  |  | inactive |  | 90%
CN1C[C@@H]2CNC(=O)c3cc(Cl)ccc3[C@H]2C1 [Example 199, (3aS,10bS)-8-Chloro-2-methyl-1,2,3,3a,4,5-hexahydrobenzo[e]pyrrolo[3,4-c]azepin-6(10bH)-one] |  | > 120% |  |  | 10 nM | inactive | > 10 µM | 
O=C1NC[C@@H]2CNC[C@H]2c2ccc(-c3ccncc3)cc21 (relative stereo) [Example 177, Trans-8-(pyridin-4-yl)-1,2,3,3a,4,5-hexahydrobenzo[e]pyrrolo[3,4-c]azepin-6(10bH)-one] |  | > 120% |  |  | 100 nM | inactive | > 10 µM | 
CN1C[C@@H]2CCOc3ccccc3[C@H]2C1 [Example 235, (3aR,10bS)-2-Methyl-2,3,3a,4,5,10b-hexahydro-1H-[1]benzoxepino[4,5-c]pyrrole] |  | 120% |  | 45% | 40 nM |  | 0.1 µM | 
Brc1ccc2c(c1)[C@H]1CNC[C@@H]1CCO2 (relative stereo) [Example 214, Trans-9-bromo-2,3,3a,4,5,10b-hexahydro-1H-[1]benzoxepino[4,5-c]pyrrole] |  | > 120% |  | 50% | 2 nM |  | 0.02 µM | 
CN1C[C@H]2CNC(=O)c3cc(C4CCCCC4)ccc3[C@@H]2C1 (relative stereo) [Example 204, Trans-8-cyclohexyl-2-methyl-1,2,3,3a,4,5-hexahydrobenzo[e]pyrrolo[3,4-c]azepin-6(10bH)-one] | 500 nM | 80% | > 10 µM |  |  | inactive |  | 
O=S(=O)(c1ccccc1)N1Cc2cccnc2[C@@H]2CNC[C@H]2C1 (relative stereo) [Example 338, Trans-6-(phenylsulfonyl)-5,6,7,7a,8,9,10,10a-octahydropyrido[3,2-c]pyrrolo[3,4-e]azepine] |  | 80% |  | 20% | 100 nM |  | 0.8 µM | 
C[C@@H](Cc1ccccc1)Oc1ccc2c(c1)C(=O)NC[C@@H]1CNC[C@@H]21 (mixture of isomers) [Example 149, Trans-8-((S)-1-phenylpropan-2-yloxy)-1,2,3,3a,4,5-hexahydrobenzo[e]pyrrolo[3,4-c]azepin-6(10bH)-one] | 4 nM |  | > 10 µM |  |  | inactive |  | 120%
O=C1NC[C@@H]2CNC[C@H]2c2cc3c(cc21)CCCC3 (relative stereo) [Example 258, Trans-1,2,3,3a,4,5,8,9,10,11-decahydronaphtho[2,3-c]pyrrolo[3,4-e]azepin-6(12bH)-one] |  | 100% |  |  | 10 nM | inactive | > 10 µM | 
Nc1ccc2c(c1)C(=O)NC[C@@H]1CN(Cc3ccccc3)C[C@H]21 (relative stereo) [Example 142, Cis-8-amino-2-benzyl-1,2,3,3a,4,5-hexahydrobenzo[e]pyrrolo[3,4-c]azepin-6(10bH)-one] | 2000 nM |  | > 10 µM |  |  | inactive |  | 80%
Cc1cccc(S(=O)(=O)N2Cc3cccnc3[C@@H]3CNC[C@H]3C2)c1 (relative stereo) [Example 348, Trans-6-[(3-methylphenyl)sulfonyl]-5,6,7,7a,8,9,10,10a-octahydropyrido[3,2-c]pyrrolo[3,4-e]azepine] |  | 85% |  | 50% | 70 nM |  | 0.8 µM | 
